From patent publication US5916924A, “Remedies for liver diseases” (Meiji Milk Products Co., Ltd., priority 1997, dated 1999) come the findings set out here.

One data set relates to mice (ICR, female). Briefly: Acute Toxicity Test. The data set is classed as in vivo. Conditions: intraperitoneal. As to the method:
The pH was adjusted to 7.0 by use of 5N NaOH. Solutions having lower concentrations were prepared by dilution with physiological saline. Each solution (10 μl) was intraperitoneally injected to mice (ICR, female, 6-weeks old, 29 g), and the survival ratio was obtained.

The test system of data set [1] is rat hepatocyte system in primary culture.
Protocol: In separation and identification of the low molecular weight factor showing hepatocyte proliferation promoting activity derived from epithelial mucosa of the bovine small intestine, the rat hepatocyte system in primary culture was used. To this culture system, a fraction of a crude extract of bovine small intestine epithelial mucosa in the course of purification was added in the presence of high molecular weight factor extract (1%) and insulin (10 μg/ml) or in the presence of EGF (20 ng/ml) and insulin (10 μg/ml), to thereby establish an assay system for measuring the uptake of ^3 H-TdR into DNA of rat hepatocyte nuclei.
Fractions each amounting 15 ml was added to the above-mentioned assay system and the uptake of ^3 H-TdR was measured.
The subject of data set [2] is liver disorder induced by carbon tetrachloride. Briefly: GOT and GPT tests in mice with liver disorder induced by carbon tetrachloride. The format is in vivo, ddY mice. As to the method: Carbon tetrachloride (5 ml, Wako Pure Chemicals) was put in a glass vial, and Panasate 800 (45 ml, Nippon Yushi Chemicals Co, Ltd.) was added to prepare a 10% (v/v) solution.
Subsequently,the total amount was made to 50 ml. An aliquot of 2 ml was diluted in 38 ml of physiological saline.
One group consisted of 10 mice. For 24 hours prior to the administration of tetrachloride, each mouse was fasted by being fed water only. 10% carbon tetrachloride/Panasate solution was intraperitoneally administered to each mice at a dose of 1 ml/kg.
Blood was collected from the abdominal aorta by use of 1-ml disposable syringes (Terumo). The blood, dispensed into 1.5 ml Eppendorf tubes, was subjected to centrifugal separation at 5,000 rpm for 10 minutes to thereby obtain serum. The activity of transaminase (GOT, GPT) in the serum thus obtained was measured. The measurement was performed by use of a Cobas Mira System (Baxter).

Where [3] appears, read: intraperitoneal, 2.8 mg/kg, 2 times.

The structures appear in SMILES notation. Structures can show the parent of a compound that is named as a salt. Where two headings read alike, the source gives them in different places. A value given as a limit tells only on which side of the number the result lay.

With `NCCO` [EA-HC1, monoethanolamine-HCl], the Survival with mice (ICR, female) (0.5 g/kg (as EA), 1 day after admin.) was 4/4; in the data set on mice (ICR, female) (0.5 g/kg (as EA), 6 days after admin.), 4/4; in the data set with mice (ICR, female) (0.5 g/kg (as EA), day of administration), 4/4; in the data set with mice (ICR, female) (1.25 g/kg (as EA), 1 day after admin.) it was 3/3; with mice (ICR, female) (1.25 g/kg (as EA), 6 days after admin.), 3/3; in the data set on mice (ICR, female) (1.25 g/kg (as EA), day of administration), 3/3. In addition, the Survival was 0/4 in the data set on mice (ICR, female) (2.5 g/kg (as EA), day of administration); 0/4 in the data set with mice (ICR, female) (5.0 g/kg (as EA), day of administration); “alive when six days had passed” in the data set with mice (ICR, female) (doses equal to or less than 1.25 g/kg, six days). Moreover, the “time to death after administration” value in the data set on mice (ICR, female) (2.5 g/kg) was at most 30 min; with mice (ICR, female) (5.0 g/kg), at most 30 min.
In the case of `NCCO` [ethanolamine, monoethanolamine], the 3H-TdR uptake activity entry in data set [1] (in the presence of EGF) and in data set [1] (in the presence of the high molecular weight factor extract) was “synergistic growth-stimulating effects” in each case. Besides, the “area of necrosis in histopathological profile of the liver” value in data set [2] (2.8 mg/kg i.p. and 16 mg/kg p.o.) was “tendency that the area of necrosis was reduced”. Further, the “serum GOT level” value in data set [2] (setting [3]) is “significantly decreased”; in data set [2] (peroral, 16 mg/kg, once) it was “significantly decreased”. The “serum GPT level” value in data set [2] (setting [3]) was “significantly decreased”; in data set [2] (peroral, 16 mg/kg, once), “significantly decreased”.
